The values below are quoted from earlier work in patent US20100120744A1, “ACETAM[…] NMDA RECEPTORS” (AUSPEX PHARMACEUTICALS, INC., priority 2008, published 2010).

For the data set the following is noted: in vivo.

With `CC(=O)NCCCS(=O)(=O)O` [Acamprosate, 3-acetamidopropane-1-sulfonic acid], the “metabolism by the body” value is on record as “not metabolized”.
